One assay deals with T1, CYP1A2 (Homo sapiens, UniProt P05177).
T1 construct: from tissue; host or cells: human liver microsomes
T1 sequence (P05177 1-516): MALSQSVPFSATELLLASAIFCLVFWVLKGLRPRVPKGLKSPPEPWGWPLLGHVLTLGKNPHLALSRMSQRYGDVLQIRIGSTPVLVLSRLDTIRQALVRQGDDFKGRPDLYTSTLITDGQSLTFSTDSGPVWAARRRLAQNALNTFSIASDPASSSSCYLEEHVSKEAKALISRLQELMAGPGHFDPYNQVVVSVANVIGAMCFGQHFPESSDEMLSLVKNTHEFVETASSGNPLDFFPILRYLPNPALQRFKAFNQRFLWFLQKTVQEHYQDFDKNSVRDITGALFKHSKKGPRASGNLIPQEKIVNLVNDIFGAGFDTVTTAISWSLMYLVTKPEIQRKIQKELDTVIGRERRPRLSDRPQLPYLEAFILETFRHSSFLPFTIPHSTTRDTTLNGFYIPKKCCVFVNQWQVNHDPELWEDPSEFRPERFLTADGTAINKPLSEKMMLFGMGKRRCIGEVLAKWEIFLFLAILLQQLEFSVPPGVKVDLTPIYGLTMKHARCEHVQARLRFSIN
The experiment in a line: CYP enzyme single point inhibition, human liver microsomes, 1A2. The assay is classed as in vitro ADME. The note with it: single point method. Here is the method: Using human liver microsomal incubation system, the inhibition of CYP450 enzyme subtypes by compounds was rapidly predicted by single point method. 2.5 mM NADPH: 100 mM phosphate buffer was added to 4.165 mg of NADPH (reduced nicotinamide adenine dinucleotide phosphate) to 2 mL. 0.25 mg/mL microsome: 4 mL of 100 mM phosphate buffer was added to 50 μL of 20 mg/mL microsome and mixed well. The embodiment compound to be tested was weighed and diluted to 10 mM with DMSO and then diluted to 100 μM with 100 mM phosphate buffer. • 1. In a 96-well plate, 40 μL of liver microsomes, 10 μL of substrate, 10 μL of compound to be tested were pre-incubated for 3 min. • 2. 40 μL of NADPH was added. • 3. 300 μL of acetonitrile termination solution containing internal standard was added at 20 min. • 4. Centrifugal injection.
(Liver microsomes are vesicles of endoplasmic reticulum, rich in cytochrome P450 enzymes.)

The next assay addresses T2, CYP2D6 (Homo sapiens, UniProt P10635).
T2 construct: from tissue; host or cells: human liver microsomes
The experiment in a line: CYP enzyme single point inhibition, human liver microsomes, 2D6. The note with it: single point method. The assay is classed as in vitro ADME. On the procedure:
(§1) Using human liver microsomal incubation system, the inhibition of CYP450 enzyme subtypes by compounds was rapidly predicted by single point method.
(§2) 2.5 mM NADPH: 100 mM phosphate buffer was added to 4.165 mg of NADPH (reduced nicotinamide adenine dinucleotide phosphate) to 2 mL. 0.25 mg/mL microsome: 4 mL of 100 mM phosphate buffer was added to 50 μL of 20 mg/mL microsome and mixed well.
(§3) The embodiment compound to be tested was weighed and diluted to 10 mM with DMSO and then diluted to 100 μM with 100 mM phosphate buffer.
(§4) • 1. In a 96-well plate, 40 μL of liver microsomes, 10 μL of substrate, 10 μL of compound to be tested were pre-incubated for 3 min. • 2. 40 μL of NADPH was added. • 3. 300 μL of acetonitrile termination solution containing internal standard was added at 20 min. • 4. Centrifugal injection.

A further assay concerns the target T3, CYP3A4 (Homo sapiens, UniProt P08684).
T3 construct: from tissue; host or cells: human liver microsomes
The experiment in a line: CYP enzyme single point inhibition, human liver microsomes, 3A4. The note with it: single point method. The format is in vitro ADME. Here is the method:
as §1, §2, §3, §4

Assay [1] concerns phosphorylated ERK in KRAS G12C mutant cells Mia PaCa-2. The experiment in a line: Inhibition of phosphorylated ERK level in Mia PaCa-2 cells (LANCE Ultra). The assay is classed as cell-based. As to conditions: Homo sapiens, 2 hours, read-out: Mia PaCa-2 pERK IC50. From the text: As a preferred embodiment of the present disclosure, the method for detecting the inhibitory activity of phosphorylated ERK level is as follows: through cell culture, adding different concentrations of compound solutions to the cultured cells, continuing the culture for a period of time, lysing the cells, followed by centrifugation and […]; • further, the method of cell culture is: adjusting the cells to a suitable cell concentration with a complete medium, preferably the cell concentration is 1×10^6/mL, and spreading the cell suspension on a well plate for culture.
When Mia PaCa-2 cells were cultured to the appropriate fusion level, Mia PaCa-2 cells were collected, and the cell density was adjusted to 1×10^6/mL using complete culture medium, the cell suspension was spread on a 96-well plate, 50 μL per well, and placed adherent to the wall in a 37° C., 5% CO2 incubator overnight, compound solutions with different concentrations were prepared using DMSO and complete culture medium, a solvent control was set, the compound solution was added to a 96-well plate, 25 μL per well, and placed in a 37° C., 5% CO2 incubator for 2 hours of continuous culture, the supernatant was discarded from the cell culture plate, 50 μL of lysis solution was added to each well, and lysing was performed for 30 minutes by shaking at room temperature, then the mixture was centrifuged at 1000 rpm for 1 minute, 15 μL of supernatant was transferred to 384 well plate, 5 μL of detection mixture (Eu-labeled anti-ERK1/2 (T202-Y204) antibody with final concentration of 0.5 nM and ULight labeled anti-ERK1/2 antibody with final concentration of 5 nM) was added to each well, centrifuged at 1000 rpm for 1 minute and mixed uniformly, the reaction was carried out overnight at room temperature, the plate was read with BioTek Synergy H1, and the signal values was detected at 620 nm and 665 nm emission wavelengths by time-resolved fluorescence program.
The ratio of the signal values at 665 nm and 620 nm emission wavelength were calculated, and the ratio was used to calculate the inhibition rate, the concentration and the inhibition rate were fitted to a nonlinear regression curve using Graphpad Prism software, then the IC50 value was obtained.
Background: TR-FRET usually uses a lanthanide donor and a delayed reading to cut background.

The mark [2] stands for this setting: 3A4-M, read-out: IC50 (nM) 3A4-M.
The mark [3] stands for this setting: 3A4-T, read-out: IC50 (nM) 3A4-T.

Read-outs that look alike come from different tables or passages of the source. Some results are limits rather than exact numbers.

What is called IC50 is the concentration at which inhibition is half-maximal.

T3 sequence (P08684 whole entry): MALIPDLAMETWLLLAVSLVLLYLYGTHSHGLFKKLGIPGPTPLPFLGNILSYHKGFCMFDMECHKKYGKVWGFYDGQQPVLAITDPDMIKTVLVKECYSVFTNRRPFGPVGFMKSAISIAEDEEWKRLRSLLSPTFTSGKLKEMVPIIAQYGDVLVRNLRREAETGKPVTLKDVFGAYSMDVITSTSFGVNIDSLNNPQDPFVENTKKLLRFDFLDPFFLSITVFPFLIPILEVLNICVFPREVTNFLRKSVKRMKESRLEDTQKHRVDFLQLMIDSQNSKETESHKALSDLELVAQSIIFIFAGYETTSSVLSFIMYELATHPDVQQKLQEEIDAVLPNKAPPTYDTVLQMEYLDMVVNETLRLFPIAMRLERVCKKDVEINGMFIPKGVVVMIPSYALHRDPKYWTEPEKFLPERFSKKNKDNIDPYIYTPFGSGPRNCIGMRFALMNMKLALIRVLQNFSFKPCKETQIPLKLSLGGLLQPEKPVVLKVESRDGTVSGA
T2 sequence (P10635 whole entry): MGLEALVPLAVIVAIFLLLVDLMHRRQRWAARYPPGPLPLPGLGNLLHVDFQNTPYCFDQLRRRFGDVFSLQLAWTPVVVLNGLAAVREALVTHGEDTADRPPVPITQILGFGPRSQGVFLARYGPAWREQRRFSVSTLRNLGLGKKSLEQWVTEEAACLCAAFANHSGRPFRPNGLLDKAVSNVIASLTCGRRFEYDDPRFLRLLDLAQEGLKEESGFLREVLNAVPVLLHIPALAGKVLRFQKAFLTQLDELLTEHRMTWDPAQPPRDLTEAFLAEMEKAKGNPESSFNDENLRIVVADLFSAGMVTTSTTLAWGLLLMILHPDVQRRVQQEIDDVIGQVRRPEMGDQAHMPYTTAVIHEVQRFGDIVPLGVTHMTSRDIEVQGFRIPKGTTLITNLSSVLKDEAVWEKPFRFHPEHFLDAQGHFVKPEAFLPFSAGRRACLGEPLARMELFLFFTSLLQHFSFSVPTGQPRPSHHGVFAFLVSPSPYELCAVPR

Consider `C=CC(=O)N1C[C@H](C)N(c2nc(=O)n(-c3c(SC)ccnc3C(C)C)c3nc(-c4c(O)cccc4F)c(F)cc23)C[C@H]1C` (single isomer, unassigned) [Embodiment 114-1], for which the IC50 against CYP1A2 was above 100 nM; against CYP2D6, above 100 nM; at CYP3A4 (setting [2]), 19 nM; at CYP3A4 (setting [3]), above 100 nM; in assay [1], 38 nM.

In the case of `C=CC(=O)N1C[C@H](C)N(c2nc(=O)n(-c3c(SC)ccnc3C(C)C)c3nc(-c4c(N)ccc(Cl)c4F)c(Cl)cc23)C[C@H]1C` (single isomer, unassigned) [Embodiment 165-1], the IC50 is 66.7 nM against CYP1A2; 21.2 nM at CYP2D6; 4.7 nM at CYP3A4 (setting [2]); 9.1 nM on CYP3A4 (setting [3]); 4.2 nM in assay [1].

For `C=CC(=O)N1C[C@H](C)N(c2nc(=O)n(-c3c(SC)ccnc3C(C)C)c3nc(-c4c(O)cccc4F)c(Cl)cc23)C[C@H]1C` (single isomer, unassigned) [Embodiment 166-1], the half-maximal inhibitory concentration (IC50) in assay [1] turned out to be 20 nM.

The values are drawn from patent US12497396B2, “Nitrogen-containing heterocyclic derivatives, method therefor and application therefor as inhibitors of KRAS G12C for the treatment of cancers” (SHANGHAI HANSOH BIOMEDICAL CO., LTD., priority 2019, dated 2025).
